Data taken from publication PMC4839570, “Novel Anthra[1,2-c][1,2,5]Thiadiazole-6,11-Diones as Promising Anticancer Lead Compounds: Biological Evaluation, Characterization & Molecular Targets Determination” (PLoS ONE, 2016).
Like-named read-outs stand apart in the source and are kept apart here.

Key:
BT-549 = assay: NCI-60 cytotoxicity screen; format: cell-based
KM-12 = assay: JFCR-39 cytotoxicity screen; format: cell-based
MALME-3M = assay: NCI-60 cytotoxicity screen; format: cell-based
NCI-H522 = assay: NCI-60 cytotoxicity screen; format: cell-based
OVCAR-8 = assay: JFCR-39 cytotoxicity screen; format: cell-based
K-562 = assay: NCI-60 cytotoxicity screen; format: cell-based; conditions: Homo sapiens, K562, Fig 7, read-out: mean log10 of the GI50 values (converted)
[1] = test system: NCI 60 human cancer cell lines; assay: NCI-60 screen, means, ranges and selectivity over panels; format: cell-based; conditions: for GI50: Homo sapiens
Protocol: Both NSC745885 and NSC757963 satisfied the pre-determined threshold inhibition criteria of the NCI-60 One-Dose Screening, so they were tested against the panels of 60 cancer cell lines of NCI (NCI-60) and 39 cancer cell lines of JFCR (JFCR-39), each cell line was tested at five small doses of our compounds. Results are expressed as the 50% growth inhibition concentration (GI50), the 50% lethal concentration (LC50) and the total growth inhibition (TGI), compared to the values of untreated control cells.
To characterize the selectivity of NSC745885 and NSC757963 further among the different types of cancer, we determined their selectivity ratios towards each cell line subpanel used in the cytotoxicity experiments. […] The promising activity of this compound is evident from the small mean GI50 values. […] The strongest activity was towards the leukemia subpanel and the least one was towards the colon cancer subpanel. […] The strongest activity was towards the melanoma subpanel and the least one was towards the colon cancer subpanel.
All cell lines were published before.

M14 = assay: NCI-60 cytotoxicity screen; format: cell-based
OVCAR-5 = assay: JFCR-39 cytotoxicity screen; format: cell-based
COLO 205 = assay: NCI-60 cytotoxicity screen; format: cell-based
SNB-78 = assay: JFCR-39 cytotoxicity screen; format: cell-based
LOX IMVI = assay: NCI-60 cytotoxicity screen; format: cell-based
IGROV1 = assay: NCI-60 cytotoxicity screen; format: cell-based
SK-OV-3 = assay: NCI-60 cytotoxicity screen; format: cell-based
DU-145 = assay: NCI-60 cytotoxicity screen; format: cell-based
SNB-75 [2] = assay: NCI-60 cytotoxicity screen; format: cell-based
SF-295 = assay: NCI-60 cytotoxicity screen; format: cell-based
SW-620 = assay: NCI-60 cytotoxicity screen; format: cell-based
SK-MEL-28 = assay: NCI-60 cytotoxicity screen; format: cell-based
SNB-75 [3] = assay: JFCR-39 cytotoxicity screen; format: cell-based
OVCAR-3 = conditions: five-dose
BSY-1 = assay: JFCR-39 cytotoxicity screen; format: cell-based
LOX-IMVI = assay: JFCR-39 cytotoxicity screen; format: cell-based
[4] = Homo sapiens, Fig 7, read-out: mean log10 of the GI50 values (converted)
[5] = Homo sapiens, five-dose, read-out: GI50
[6] = Homo sapiens, five-dose, read-out: LC50 (the source's name)
[7] = Homo sapiens, read-out: LC50 (the source's name)

## O=C1c2ccccc2C(=O)c2c1cc(Cl)c1nsnc21 [NSC757963]
BT-549; [4]
  GI50: 15.8 µM
BT-549; [5]
  GI50: 18.1 µM
BT-549; [6]
  CC50: 58.9 µM
BT-549; five-dose
  TGI: 32.7 µM
KM-12
  TGI: 8.4 µM
KM-12; Homo sapiens, KM12
  GI50: 3 µM
KM-12; Homo sapiens, KM12, read-out: LC50 (the source's name)
  CC50: 36 µM
MALME-3M; [4]
  GI50: 12.6 µM
MALME-3M; [5]
  GI50: 15.9 µM
MALME-3M; [6]
  CC50: 59.1 µM
MALME-3M; five-dose
  TGI: 30.7 µM
NCI-H522; [4]
  GI50: 1.66 µM
NCI-H522; [5]
  GI50: 1.6 µM
NCI-H522; [6]
  CC50: 8.18 µM
NCI-H522; five-dose
  TGI: 3.62 µM
OVCAR-8
  TGI: 4.8 µM
OVCAR-8; Homo sapiens
  GI50: 2.1 µM
OVCAR-8; [7]
  CC50: > 100 µM
K-562
  GI50: 0.759 µM
[1]
  selectivity ratios of the NCI subpanels other than leukemia: less than 3
[1]; Fig 7, read-out: MG-MID of mean log10 GI50 (converted)
  GI50: 4.47 µM
[1]; NCI Breast Cancer, read-out: Mean GI50 of subpanel
  GI50: 5.11 µM
[1]; NCI CNS Cancer, read-out: Mean GI50 of subpanel
  GI50: 7.71 µM
[1]; NCI Colon Cancer, read-out: Mean GI50 of subpanel
  GI50: 11.4 µM
[1]; NCI Leukemia, read-out: Mean GI50 of subpanel
  GI50: 1.4 µM
[1]; NCI Melanoma, read-out: Mean GI50 of subpanel
  GI50: 8.44 µM
[1]; NCI Non-Small Cell Lung Cancer, read-out: Mean GI50 of subpanel
  GI50: 20.7 µM
[1]; NCI Ovarian Cancer, read-out: Mean GI50 of subpanel
  GI50: 6.77 µM
[1]; NCI Prostate Cancer, read-out: Mean GI50 of subpanel
  GI50: 8.53 µM
[1]; NCI Renal Cancer, read-out: Mean GI50 of subpanel
  GI50: 18.5 µM
[1]; all NCI subpanels, read-out: mean GI50 values of the NCI 60 subpanels, range
  GI50: 1.4 to 20.7 µM
[1]; equivalent to MID, read-out: Mean GI50 of all NCI-60 cell line panels
  GI50: 10.9 µM
[1]; five-dose, read-out: NCI-60 GI50 values, range over cell lines
  GI50: 0.33 to 72.8 µM
[1]; NCI Breast Cancer
  Selectivity ratio: 2.14
[1]; NCI CNS Cancer
  Selectivity ratio: 1.41
[1]; NCI Colon Cancer
  Selectivity ratio: 0.96
[1]; NCI Leukemia
  Selectivity ratio: 7.79
[1]; NCI Melanoma
  Selectivity ratio: 1.29
[1]; NCI Non-Small Cell Lung Cancer
  Selectivity ratio: 0.53
[1]; NCI Ovarian Cancer
  Selectivity ratio: 1.61
[1]; NCI Prostate Cancer
  Selectivity ratio: 1.28
[1]; NCI Renal Cancer
  Selectivity ratio: 0.59
M14; [4]
  GI50: 15.1 µM
M14; [5]
  GI50: 17 µM
M14; [6]
  CC50: 59.7 µM
M14; five-dose
  TGI: 31.9 µM
OVCAR-5
  TGI: 3.0 µM
OVCAR-5; Homo sapiens
  GI50: 1.6 µM
OVCAR-5; [7]
  CC50: 5.5 µM
COLO 205; Homo sapiens, COLO205, Fig 7, read-out: mean log10 of the GI50 values (converted)
  GI50: 14.1 µM
COLO 205; [5]
  GI50: 16.9 µM
COLO 205; [6]
  CC50: 57.9 µM
COLO 205; five-dose
  TGI: 31.2 µM
SNB-78
  TGI: 4.1 µM
SNB-78; Homo sapiens
  GI50: 2.2 µM
SNB-78; [7]
  CC50: 7.9 µM
LOX IMVI; Homo sapiens, LOXIMVI, Fig 7, read-out: mean log10 of the GI50 values (converted)
  GI50: 1.74 µM
LOX IMVI; [5]
  GI50: 1.91 µM
LOX IMVI; [6]
  CC50: 19.7 µM
LOX IMVI; five-dose
  TGI: 5.21 µM
IGROV1; Homo sapiens, IGROV-1, Fig 7, read-out: mean log10 of the GI50 values (converted)
  GI50: 2.51 µM
IGROV1; Homo sapiens, IGROV-1, five-dose, read-out: GI50
  GI50: 3.3 µM
IGROV1; Homo sapiens, IGROV-1, five-dose, read-out: LC50 (the source's name)
  CC50: 45.7 µM
IGROV1; five-dose
  TGI: 15.6 µM
SK-OV-3; [4]
  GI50: 13.2 µM
SK-OV-3; [5]
  GI50: 17.8 µM
SK-OV-3; [6]
  CC50: 58 µM
SK-OV-3; five-dose
  TGI: 32.1 µM
DU-145; [4]
  GI50: 14.1 µM
DU-145; [5]
  GI50: 14.2 µM
DU-145; [6]
  CC50: 52.2 µM
DU-145; five-dose
  TGI: 27.2 µM
SNB-75 [2]; [4]
  GI50: 1.91 µM
SNB-75 [2]; [5]
  GI50: 2.17 µM
SNB-75 [2]; [6]
  CC50: 69.1 µM
SNB-75 [2]; five-dose
  TGI: 6.89 µM
SF-295; [4]
  GI50: 17.4 µM
SF-295; [5]
  GI50: 16.6 µM
SF-295; [6]
  CC50: 62.9 µM
SF-295; five-dose
  TGI: 32.3 µM
SW-620; [4]
  GI50: 2.51 µM
SW-620; [5]
  GI50: 2.87 µM
SW-620; [6]
  CC50: 58.7 µM
SW-620; five-dose
  TGI: 10.4 µM
SK-MEL-28; [4]
  GI50: 5.37 µM
SK-MEL-28; [5]
  GI50: 9.52 µM
SK-MEL-28; [6]
  CC50: 47 µM
SK-MEL-28; five-dose
  TGI: 21.5 µM
SNB-75 [3]
  TGI: 3.8 µM
SNB-75 [3]; Homo sapiens
  GI50: 2.1 µM
SNB-75 [3]; [7]
  CC50: 6.8 µM
OVCAR-3
  TGI: 3.23 µM
BSY-1
  TGI: 3.2 µM
BSY-1; Homo sapiens
  GI50: 1.7 µM
BSY-1; [7]
  CC50: 6 µM
LOX-IMVI
  TGI: 4.2 µM
LOX-IMVI; Homo sapiens
  GI50: 1.9 µM
LOX-IMVI; [7]
  CC50: 9.3 µM
